Where a name gives a salt, the structure may show the parent alone. Read-outs that look alike come from different tables or passages of the source.

Assay [1] concerns the target T1, full length recombinant Pim-1 protein (Homo sapiens, UniProt P11309).
T1 construct: by full length recombinant Pim-1, Pim-2, or Pim-3 protein; hexahistidine tag followed by a thrombin cleavage site (N); made in house; host or cells: Sf9 (baculovirus) or E. coli (pET28)
Nature of the assay: Pim-1 enzyme assay (HTRF, phosphorylation of biotinylated-BAD (S112) peptide). Particulars: read-out: Pim_1_IC50. The class given is biochemical. The method, boiled down:
(§1)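 Kinase: full-length human Pim-1/Pim-2, His6-thrombin tagged. Substrate biotin-BAD (S112) peptide. Buffer 60 mM Hepes pH 7.0, 0.05% BSA, 2 mM DTT. Stop 3 mM EDTA. Detection HTRF (Eu anti-pBAD/SA-APC). IC50 by 4-parameter logistic on POC.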
For orientation: TR-FRET usually uses a lanthanide donor and a delayed reading to cut background.

The target of assay [2] is T2, Pim-1 stably transfected into the U2OS human osteogenic sarcoma line (Homo sapiens, UniProt P11309).
T2 construct: expressed in transfected cells; host or cells: U2OS human osteogenic sarcoma line
T2 sequence (P11309 whole entry): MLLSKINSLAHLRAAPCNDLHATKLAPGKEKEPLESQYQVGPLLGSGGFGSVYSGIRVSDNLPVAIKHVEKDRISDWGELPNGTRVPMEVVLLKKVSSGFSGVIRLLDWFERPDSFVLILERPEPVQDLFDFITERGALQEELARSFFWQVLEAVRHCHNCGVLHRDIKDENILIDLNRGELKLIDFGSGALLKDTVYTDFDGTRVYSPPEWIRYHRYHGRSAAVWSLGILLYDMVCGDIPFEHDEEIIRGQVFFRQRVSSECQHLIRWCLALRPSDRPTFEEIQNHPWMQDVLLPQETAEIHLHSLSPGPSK
In words: Pim cell assay, phospho-BAD normalized against total BAD, U2OS stably transfected with Pim-1. The class given is cell-based. As to the method:
(§2) The cell lines used in the assay were generated by the stable transfection of either Pim-1 or Pim-2 into the U2OS human osteogenic sarcoma line. The assay for determination of the Pim activity in the engineered U2OS cell lines measures levels of phospho-BAD normalized against total BAD protein levels. It was conducted as follows:
(§3) The adherent cells were dissociated from the flasks using non-enzymatic cell dissociation solution (Sigma # C5914). […] The cells were then incubated overnight at 37° C., 5% CO2.
(§4) In addition to the 10-point dosing curve of the test compound, DMSO alone was run as the high control.
(§5) This dilution in DMSO was then diluted again into cell growth medium. Aliquots (12 uL) of the compound diluted in growth medium were then transferred to the appropriate wells of the 96-well plates containing cells to yield a final DMSO concentration of 0.3%.
(§6) The cell plates containing lysis buffer were then immediately stored at −70° C.
(§7) These prepared lysates were then assayed for phospho and total BAD according to the manufacturer's protocols (Meso Scale Diagnostics, Cat# K15103C-3 & # K15103D-3). The plates were read on the MSD Sector Imager 6000, and results were calculated according to the assay protocols ((% Phosphoprotein=((2×Phospho signal)/(Phospho signal+Total signal))×100)).

The target in assay [3] is T3, full length recombinant Pim-2 protein (Homo sapiens, UniProt Q9P1W9).
T3 construct: by full length recombinant Pim-1, Pim-2, or Pim-3 protein; hexahistidine tag followed by a thrombin cleavage site (N); made in house; host or cells: Sf9 (baculovirus) or E. coli (pET28)
T3 sequence (Q9P1W9 whole entry): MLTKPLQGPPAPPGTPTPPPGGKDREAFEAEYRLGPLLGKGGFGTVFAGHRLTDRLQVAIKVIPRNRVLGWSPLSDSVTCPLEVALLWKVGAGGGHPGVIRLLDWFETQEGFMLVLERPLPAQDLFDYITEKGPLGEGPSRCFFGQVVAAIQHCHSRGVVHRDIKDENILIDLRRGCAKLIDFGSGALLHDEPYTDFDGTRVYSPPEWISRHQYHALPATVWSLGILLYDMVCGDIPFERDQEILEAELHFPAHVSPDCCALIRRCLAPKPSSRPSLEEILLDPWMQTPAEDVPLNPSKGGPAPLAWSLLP
In words: Pim-2 enzyme assay (HTRF, phosphorylation of biotinylated-BAD (S112) peptide). The following applies: read-out: Pim2_IC50. The class given is biochemical. Put shortly:
as §1

For assay [4], the target named is T4, Pim-2 stably transfected into the U2OS human osteogenic sarcoma line (Homo sapiens, UniProt Q9P1W9).
T4 construct: expressed in transfected cells; host or cells: U2OS human osteogenic sarcoma line
T4 sequence (Q9P1W9 whole entry): as above
Nature of the assay: Pim cell assay, phospho-BAD normalized against total BAD, U2OS stably transfected with Pim-2. The class given is cell-based. As to the method:
as §2, §3, §4, §5, §6, §7

The mark [5] stands for this setting: U2OS stably transfected with Pim-1, phospho-BAD normalized against total BAD, 29 min incubation, read-out: Pim1_Cell_IC50_.
Setting [6] is: U2OS stably transfected with Pim-2, phospho-BAD normalized against total BAD, 29 min incubation, read-out: Pim2_Cell_IC50_.
Setting [7] is: U2OS cells stably transfected with Pim-1, phospho-BAD, high dose […], read-out: Pim1_Cell_IC50.
The mark [8] stands for this setting: U2OS cells stably transfected with Pim-2, phospho-BAD, high dose […], read-out: Pim2_Cell_IC50.

T1 sequence (P11309 whole entry): as the sequence (P11309 whole entry) above

For the compound `CC1CCNCC1Oc1cncc(-c2n[nH]c3ccc(-c4c(F)cccc4F)cc23)n1` (single isomer, unassigned) [Example 423], the IC50 in assay [1] is 17 nM; in assay [2] (setting [5]), 1660 nM; in assay [3], 194 nM; in assay [4] (setting [6]), > 31600 nM.
`CC1(C)CNCCC1Oc1cncc(-c2n[nH]c3ccc(-c4c(F)cccc4F)cc23)n1` (single isomer, unassigned) [Example 432]: the IC50 is 20 nM in assay [1], 2410 nM in assay [2] (setting [5]), 114 nM in assay [3] and > 31600 nM in assay [4] (setting [6]).
Taken in the same sequence, the figures for `CC1(C)CNCCC1Oc1cncc(-c2n[nH]c3ccc(-c4c(F)cccc4F)cc23)n1` (single isomer, unassigned) [Example 433] were 2 nM, 801 nM, 22 nM and > 10000 nM.
Turning to `NC1CCN(c2cncc(-c3n[nH]c4ccc(-c5cnc6[nH]nc(C(F)(F)F)c6c5)cc34)n2)CC1` [Example 6, 1-(6-(5-(3-(trifluoromethyl)-1H-pyrazolo[3,4-b]pyridin-5-yl)-1H-indazol-3-yl)pyrazin-2-yl)piperidin-4-amine], the IC50 is 1 nM in assay [1] (enzyme assay, Pim-1); 1880 nM in assay [2] (setting [7]); 35 nM in assay [3] (enzyme assay, Pim-2); > 31600 nM in assay [4] (setting [8]).
Consider `COc1cncc(-c2ccc3[nH]nc(-c4ccnc(N5CCC(N)CC5)n4)c3c2)c1` [Example 30, 1-(4-(5-(5-Methoxypyridin-3-yl)-1H-indazol-3-yl)pyrimidin-2-yl)piperidin-4-amine], for which the IC50 in assay [1] (enzyme assay, Pim-1) amounted to 1 nM; in assay [2] (read-out: Pim1_Cell_IC50), 89 nM; in assay [3] (enzyme assay, Pim-2), 7 nM; in assay [4] (read-out: Pim2_Cell_IC50), 2240 nM.
In the case of `NC1CCN(c2cncc(-c3n[nH]c4ccc(-c5cnc6[nH]ccc6c5)cc34)n2)CC1` [Example 57, 1-(6-(5-(1H-pyrrolo[2,3-b]pyridin-5-yl)-1H-indazol-3-yl)-2-pyrazinyl)-4-piperidinamine], the IC50 is 1 nM in assay [1] (enzyme assay, Pim-1); 605 nM in assay [2] (setting [7]); 10 nM in assay [3] (enzyme assay, Pim-2); > 31600 nM in assay [4] (setting [8]).
Take `Nc1cncc(-c2ccc3[nH]nc(-c4cncc(N5CCC(N)CC5)n4)c3c2)c1` [Example 73, 5-(3-(6-(4-amino-1-piperidinyl)-2-pyrazinyl)-1H-indazol-5-yl)-3-pyridinamine]: the IC50 in assay [1] (enzyme assay, Pim-1) was 1 nM; in assay [2] (setting [7]), 885 nM; in assay [3] (enzyme assay, Pim-2), 3 nM; in assay [4] (setting [8]) it was > 31600 nM.
For the compound `COc1cncc(-c2ccc3[nH]nc(-c4cncc(N5CCC(N)CC5)n4)c3c2)c1` [Example 79, 1-(6-(5-(5-methoxy-3-pyridinyl)-1H-indazol-3-yl)-2-pyrazinyl)-4-piperidinamine], the IC50 in assay [1] (enzyme assay, Pim-1) came out at 1 nM; in assay [2] (setting [7]), 182 nM; in assay [3] (enzyme assay, Pim-2), 9 nM; in assay [4] (setting [8]) it was 3890 nM.
Regarding `NC1CCN(c2cncc(-c3n[nH]c4ccc(-c5cccnc5)cc34)n2)CC1` [Example 82, 1-(6-(5-(3-pyridinyl)-1H-indazol-3-yl)-2-pyrazinyl)-4-piperidinamine], the IC50 is 1 nM in assay [1] (enzyme assay, Pim-1); 171 nM in assay [2] (setting [7]); 7 nM in assay [3] (enzyme assay, Pim-2); 7810 nM in assay [4] (setting [8]).
In the case of `c1cc(-c2ccc3[nH]nc(-c4cncc(O[C@@H]5CCCNC5)n4)c3c2)nc(NC2CC2)n1` [Example 242, N-cyclopropyl-4-(3-(6-((3R)-3-piperidinyloxy)-2-pyrazinyl)-1H-indazol-5-yl)-2-pyrimidinamine], the IC50 in assay [1] is 5 nM; in assay [2] (setting [5]), 369 nM; in assay [3], 108 nM; in assay [4] (setting [6]), 31500 nM.
With `c1cc2[nH]nc(-c3cncc(N[C@@H]4CCCNC4)n3)c2cc1-c1cncc(C2CC2)n1` [Example 243, 6-(5-(6-cyclopropyl-2-pyrazinyl)-1H-indazol-3-yl)-N-((3R)-3-piperidinyl)-2-pyrazinamine], the IC50 in assay [2] (setting [5]) was found to be 99 nM; in assay [3], 8 nM; in assay [4] (setting [6]), 5590 nM.
For `c1cc2[nH]nc(-c3cncc(C4CC4)n3)c2cc1-c1cncc(C2CC2)n1` [Example 244, 3,5-bis(6-cyclopropyl-2-pyrazinyl)-1H-indazole], the IC50 in assay [1] is 1 nM; in assay [2] (setting [5]) it was 169 nM; in assay [3], 3 nM; in assay [4] (setting [6]), > 10000 nM.
As for `c1cc2[nH]cc(-c3cncc(C4CC4)n3)c2cc1-c1cncc(C2CC2)n1` [Example 245, 3,5-bis(6-cyclopropyl-2-pyrazinyl)-1H-indole], the IC50 in assay [1] was 28 nM; in assay [2] (setting [5]), 3640 nM; in assay [3] it was 345 nM; in assay [4] (setting [6]), > 31600 nM.
For `C1=C(c2ccc3[nH]nc(-c4cncc(O[C@H]5CNCCC56CC6)n4)c3c2)CCOC1` [Example 263, 3-(6-((4R)-6-azaspiro[25]oct-4-yloxy)-2-pyrazinyl)-5-(3,6-dihydro-2H-pyran-4-yl)-1H-indazole 2,2,2-trifluoroacetate salt] the same measures were 4 nM, 180 nM, 8 nM and 5760 nM.
For the compound `c1cc2[nH]nc(-c3cncc(O[C@H]4CNCCC45CC5)n3)c2cc1C1CCOCC1` [Example 264, 3-(6-((4R)-6-azaspiro[25]oct-4-yloxy)-2-pyrazinyl)-5-(tetrahydro-2H-pyran-4-yl)-1H-indazole-2,2,2-trifluoroacetate], the IC50 was 6 nM in assay [1], 276 nM in assay [2] (setting [5]), 15 nM in assay [3] and > 10000 nM in assay [4] (setting [6]).
Taken in the same sequence, the figures for `NC1CCN(c2nc(-c3c[nH]c4ccc(-c5c(F)cccc5F)cc34)cc(=O)[nH]2)CC1` [Example 277, 2-(4-aminopiperidin-1-yl)-6-(5-(2,6-difluorophenyl)-1H-indol-3-yl)pyrimidin-4(3H)-one] were 1 nM, 2470 nM, 2 nM and > 31600 nM.
Take `O=c1cc(-c2c[nH]c3ccc(-c4c(F)cccc4F)cc23)nc(N[C@@H]2CCCNC2)[nH]1` [Example 279, (R)-6-(5-(2,6-difluorophenyl)-1H-indol-3-yl)-2-(piperidin-3-ylamino)pyrimidin-4(3H)-one]: the IC50 in assay [1] was 1 nM; in assay [2] (setting [5]) it was 2400 nM; in assay [4] (setting [6]) it was > 31600 nM.
As for `CC(C)Nc1nc(-c2c[nH]c3ccc(-c4cncc(C5CC5)n4)cc23)cc(=O)[nH]1` [Example 287, 6-(5-(6-cyclopropylpyrazin-2-yl)-1H-indol-3-yl)-2-(isopropylamino) pyrimidin-4(3H)-one], the IC50 was 6 nM in assay [1], 1310 nM in assay [2] (setting [5]), 87 nM in assay [3] and > 31600 nM in assay [4] (setting [6]).
For `c1cc2[nH]nc(-c3cncc(NC4CCNCC4)n3)c2cc1-c1cncc(C2CC2)n1` [Example 369, 6-(5-(6-cyclopropyl-2-pyrazinyl)-1H-indazol-3-yl)-N-4-piperidinyl-2-pyrazinamine], the IC50 amounted to 83 nM in assay [2] (setting [5]), 1 nM in assay [3] and 3700 nM in assay [4] (setting [6]).
Taken in the same sequence, the figures for `NC1CCN(c2cncc(-c3n[nH]c4ccc(-c5cncc(C6CC6)n5)cc34)n2)CC1` [Example 503, 1-(6-(5-(6-cyclopropyl-2-pyrazinyl)-1H-indazol-3-yl)-2-pyrazinyl)-4-piperidinamine] were 76 nM, 2 nM and 3680 nM.
For `Nc1cncc(-c2ccc3[nH]nc(-c4cncc(N5CCC(N)CC5)n4)c3c2)n1` [Example 508] the same measures were 1370 nM, 1 nM and > 31600 nM.
On to `NC1CCN(c2cncc(-c3n[nH]c4ccc(-c5cncc(NC6CC6)n5)cc34)n2)CC1` [Example 509], for which the IC50 in assay [2] (setting [5]) was determined as 51 nM; in assay [3], 6 nM; in assay [4] (setting [6]), 4230 nM.
As for `COC(=O)c1ccc2[nH]nc(-c3cncc(NC4CCNCC4)n3)c2c1` [Example 559], the values for the IC50 in assay [2] (setting [5]), in assay [3] and in assay [4] (setting [6]) were 202 nM, 1 nM and 8120 nM, respectively.
For `CC(C)OC(=O)c1ccc2[nH]nc(-c3cncc(NC4CCNCC4)n3)c2c1` [Example 560], the values for the IC50 in assay [2] (setting [5]), in assay [3] and in assay [4] (setting [6]) were 394 nM, 5 nM and 4780 nM, respectively.

The values are drawn from US9090593B2, “Bicyclic compounds as Pim inhibitors” (AMGEN INC., priority 2010, dated 2015).
